Source: ChEMBL document CHEMBL1135010, “Synthetic studies of cis-4-Amino-L-proline derivatives as novel lipid lowering agents” (2002)
The source made the active and inactive calls. The rule behind the calls is not given here.

Tests used:
[1] = Screening was performed to determine its plasma triglyceride lowering activity on administration of 10 mg/kg/day dose for 6 days on inbreed colony of Swiss Albino Mice; type: functional, Mus musculus
Mus musculus = assay: Screening was performed to determine its plasma triglyceride lowering activity on administration of 10 mg/kg/day on inbreed colony of Swiss Albino Mice; No significant reduction; type: functional, organism-based
[2] = Screening was performed to determine its plasma triglyceride lowering activity on administration of 30 mg/kg/day dose for 6 days on inbreed colony of Swiss Albino Mice; type: functional, Mus musculus

Compound | Lowering activity [1] | Lowering activity (Mus musculus) | Lowering activity [2]
CCc1nc2ccccc2c(=O)n1CC(=O)N[C@H]1C[C@@H](C(=O)O)N(C(=O)OC(C)(C)C)C1 | 30% | – | –
CC(C)OC(=O)C(C)(C)Oc1ccc(C(=O)c2ccc(Cl)cc2)cc1 [FENOFIBRATE] | – | inactive | 36%
CCCc1nn(C)c2c(=O)n(CC(=O)N[C@H]3C[C@@H](C(=O)OCC)N(C(=O)OC(C)(C)C)C3)c(CC)nc12 | 40% | – | –
